Measurements published in patent US5935995A, “Prodrugs for the therapy of tumors and inflammatory disorders” (Heochst Aktiengesellschaft, priority 1996, dated 1999).
Read-outs that look alike come from different tables or passages of the source.

Experiments:
LoVo cells = assay: Cytotoxicity on LoVo tumor cells in the presence and absence of β-glucuronidase (MTT); format: cell-based
[1] = Stability in solution in anhydrous DMSO; format: physicochemical
Procedure: The prodrug F 373 is stable in solution in anhydrous DMSO. To investigate the cleavability, […] of F 373 solution (5 mg/ml in DMSO) were treated with 180 ml of 0.02 M phosphate buffer pH 7.2 and 10 ml of E. coli β-glucuronidase (Sigma) (330 mg/ml) and the mixture was incubated at 37° C. 25 ml batches were diluted with 225 ml of 0.1 M phosphate buffer pH 3.0 (85%) and acetonitrile (15%) and immediately analyzed with the aid of the following HPLC system.

**Q.** Which IC50 (LoVo cells; read-out: IC50 with β-gluc.) does the source give for `CN(C(=O)Oc1ccc(N(CCCl)CCCl)cc1)c1cc([N+](=O)[O-])ccc1O[C@@H]1O[C@H](C(=O)O)[C@@H](O)[C@H](O)[C@H]1O` [F 373, 2-[N-Methyl-N-[4-(N,N'-bis(2-chloroethyl)amino)phenyloxycarbonyl]-amino]-4-nitrophenyl-β-D-glucuronic acid] here?
**A.** 6.3 µM

**Q.** And the IC50 (LoVo cells; read-out: IC50 without β-gluc.)?
**A.** > 500 µM

**Q.** And the stability in solution [1]?
**A.** stable

**Q.** With `C=CC1CN2CCC1CC2C(OC(=O)N(C)c1cc([N+](=O)[O-])ccc1OC1OC(C(=O)O)C(O)C(O)C1O)c1ccnc2ccc(OC)cc12` (stereo not drawn) [F 391] as the compound, how does the IC50 (LoVo cells; Homo sapiens, LoVo, 65 h, read-out: IC50 with β-gluc.) read?
**A.** 113 µM

**Q.** And the IC50 (LoVo cells; Homo sapiens, LoVo, 65 h, read-out: IC50 without β-gluc.)?
**A.** > 400 µM

**Q.** With `CN(C(=O)OCCN(CCO)c1nc(N2CCCCC2)c2nc(N(CCO)CCO)nc(N3CCCCC3)c2n1)c1cc([N+](=O)[O-])ccc1O[C@@H]1O[C@H](C(=O)O)[C@@H](O)[C@H](O)[C@H]1O` [F 392] as the compound, how does the IC50 (LoVo cells; Homo sapiens, LoVo cells, 65 h, with β-glucuronidase (50 mg/mil final concentration), read-out: IC50 with β-gluc.) read?
**A.** 49.5 µM

**Q.** And the IC50 (LoVo cells; Homo sapiens, LoVo cells, 65 h, without β-glucuronidase, read-out: IC50 without β-gluc.)?
**A.** > 400 µM

**Q.** With `OCCN(CCO)c1nc(N2CCCCC2)c2nc(N(CCO)CCO)nc(N3CCCCC3)c2n1` [dipyridamole, reference compound] as the compound, how does the IC50 (LoVo cells; Homo sapiens, LoVo, parent toxic compound tested alone, read-out: IC50 of the toxic compound tested alone) read?
**A.** 43 µM

**Q.** With `C=C[C@H]1C[N@@]2CC[C@H]1C[C@H]2[C@H](O)c1ccnc2ccc(OC)cc12` [quinine, reference compound] as the compound, how does the IC50 (LoVo cells; Homo sapiens, LoVo, read-out: IC50 of the toxic compound tested alone) read?
**A.** 103 µM
